The source of these data is US9695155B2, “Herbicidal substituted pyrimidinyloxy benzene compounds” (E. I. DU PONT DE NEMOURS AND COMPANY, priority 2013, dated 2017).

In experiment [1] the test system is pigweed. In words: Test A preemergence. The class given is in vivo, Amaranthus retroflexus. The method in brief: (§1)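 Greenhouse pot test, loam/sand soil. Formulation: non-phytotoxic solvent mix plus surfactant. Pre: directed spray onto soil after sowing. Post: plants at 1–2 leaf, 2–10 cm. Rated visually vs untreated controls at ~10 d, 0 (no effect) to 100 (complete control).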

In another experiment the test system is giant foxtail. In words: Test A postemergence. The class given is in vivo, Setaria faberii. The method in brief: as §1
Another experiment concerns corn. In words: Test A postemergence. The format is in vivo, Zea mays. In short, it runs like this:
as §1

A further experiment has as its system lambsquarters. Nature of the experiment: Test C preemergence. The class given is in vivo, Chenopodium album. The conditions noted are these: for Lambsquarters plant response rating: preemergence; for Plant response rating, Lambsquarters: Preemergence, scale 0 to 100, 0 no effect, 100 complete control. The method in brief: (§2)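 Plants were kept under greenhouse conditions for 13–15 days following spray. Pre-emergent application went to soil (loam–sand), post-emergent to foliage at 1–4 leaves. Evaluation: visual, percent control against untreated checks.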

For a further experiment, the system named is yellow nutsedge. Nature of the experiment: Test C preemergence. The class given is in vivo, Cyperus esculentus. Particulars: for Nutsedge, Yellow plant response rating: preemergence. In short, it runs like this:
as §2

Experiment [2] deals with pigweed. Nature of the experiment: Test C preemergence. The conditions noted are these: for Pigweed plant response rating: preemergence; for Plant response rating, Pigweed: Preemergence, scale 0 to 100, 0 no effect, 100 complete control. The class given is in vivo, Amaranthus retroflexus. The method in brief:
as §2

The subject of the next experiment is ragweed. In words: Test C preemergence. The conditions noted are these: for Ragweed plant response rating: preemergence; for Plant response rating, Ragweed: Preemergence, scale 0 to 100, 0 no effect, 100 complete control. The class given is in vivo, Ambrosia elatior. The method in brief: as §2
The subject of another experiment is waterhemp. Nature of the experiment: Test C preemergence. The conditions noted are these: for Waterhemp plant response rating: preemergence; for Plant response rating, Waterhemp: Preemergence, scale 0 to 100, 0 no effect, 100 complete control. The class given is in vivo, Amaranthus rudis. The text has this: Seeds of plant species selected from blackgrass (Alopecurus myosuroides), Italian ryegrass (Lolium multiflorum), wheat, winter (winter wheat, Triticum aestivum), galium (catchweed bedstraw, Galium aparine), corn (Zea mays), large (Lg) crabgrass (Digitaria sanguinalis), giant foxtail (Setaria faberii), johnsongrass (Sorghum halepense), lambsquarters (Chenopodium album), morningglory (Ipomoea coccinea), yellow nutsedge (Cyperus esculentus), pigweed (Amaranthus retroflexus), ragweed (common ragweed, Ambrosia elatior), soybean (Glycine max), barnyardgrass (Echinochloa crus-galli), oilseed rape (Brassica napus), waterhemp (common waterhemp, Amaranthus rudis), kochia (Kochia scoparia), wild oat (Avena fatua), surinam grass (Brachiaria decumbens), foxtail, green (green foxtail, Setaria viridis), goosegrass (Eleusine indica), bromegrass, downy (downy bromegrass, Bromus tectorum), nightshade (eastern black nightshade, Solanum ptycanthum), cocklebur (common cocklebur, Xanthium strumarium), cupgrass, woolly (woolly cupgrass, Eriochloa villosa), bermudagrass (Cynodon dactylon), sunflower, (common oilseed sunflower, Helianthus annuus), Russian thistle (Salsola kali), and velvetleaf (Abutilon theophrasti) were planted into a blend of loam soil and sand and treated preemergence with test chemicals formulated in a non-phytotoxic solvent mixture which included a surfactant.
At the same time, plants selected from these crop and weed species and also barley, winter (winter barley, Hordeum vulgare), windgrass (Apera spica-venti), chickweed (common chickweed, Stellaria media), deadnettle (henbit deadnettle, Lamium amplexicaule), and canarygrass (littleseed canarygrass, Phalaris minor) were planted in pots containing Redi-Earth® planting medium (Scotts Company, 14111 Scottslawn Road, Marysville, Ohio 43041) comprising spaghnum peat moss, vermiculite, wetting agent and starter nutrients and treated with postemergence applications of test chemicals formulated in the same manner. Plants ranged in height from 2 to 18 cm (1- to 4-leaf stage) for postemergence treatments. Treated plants and controls were maintained in a greenhouse for 13 to 15 days, after which time all species were compared to controls and visually evaluated. Plant response ratings, summarized in Table C, are based on a scale of 0 to 100 where 0 is no effect and 100 is complete control. A dash (-) response means no test result.

The mark [3] stands for this setting: 125 g ai/ha, 0 to 100 scale where 0 is no effect and 100 is complete control.
Setting [4] is: 31 g ai/ha, 0 to 100 scale, 0 no effect, 100 complete control.
The mark [5] stands for this setting: 16 g ai/ha, scale 0 to 100 (0 no effect, 100 complete control).
Where [6] appears, read: 62 g ai/ha, scale 0 (no effect) to 100 (complete control).
Setting [7] is: 125 g ai/ha, scale 0 (no effect) to 100 (complete control).
Setting [8] is: 500 g ai/ha, 0 to 100 scale where 0 is no effect and 100 is complete control.
[9] abbreviates: 31 g ai/ha, 0 to 100 scale where 0 is no effect and 100 is complete control, visual, approximately 10 days.
[10] abbreviates: 125 g ai/ha, 0 to 100 scale, 0 no effect, 100 complete control.

For the compound `FCc1cccc(Oc2ncc(F)cn2)c1-n1cc(C(F)(F)F)cn1` [Compound 118], the “Pigweed plant response rating (0 to 100 scale)” value in the experiment with pigweed [1] (31 g ai/ha) is reported as 100. The “Plant response rating, Pigweed” value in the experiment with pigweed [1] (setting [3]) and with pigweed [2] (31 g ai/ha) was 100 in each case. The “Plant response rating, Foxtail, Giant” value in the experiment with giant foxtail (setting [4]) is 30; in the experiment with giant foxtail (setting [3]), 80. In addition, the “Plant response rating, Corn” value is 10 in the experiment with corn (setting [4]) and 50 with corn (setting [3]). In addition, the “Lambsquarters plant response rating” value in the experiment on lambsquarters (setting [5]), in the experiment with lambsquarters (setting [6]) and in the experiment with lambsquarters (setting [7]) was 100 each time. In the experiment on lambsquarters (31 g ai/ha), the “Plant response rating, Lambsquarters” value came out at 100. Besides, the “Nutsedge, Yellow plant response rating” value with yellow nutsedge (setting [5]) stood at 0; in the experiment with yellow nutsedge (setting [6]) it was 25; in the experiment with yellow nutsedge (setting [7]), 70. Besides, in the experiment with yellow nutsedge (Preemergence, 31 g ai/ha, scale 0 to 100, 0 no effect, 100 complete control), the “Plant response rating, Nutsedge, Yellow” value worked out at 5. The “Pigweed plant response rating” value in the experiment on pigweed [2] (setting [5]) was 90; in the experiment on pigweed [2] (setting [6]) it was 100; in the experiment with pigweed [2] (setting [7]) it was 100. Also, the “Ragweed plant response rating” value with ragweed (setting [5]) came to 70; with ragweed (setting [6]), 100; in the experiment with ragweed (setting [7]), 100. The “Plant response rating, Ragweed” value with ragweed (31 g ai/ha) amounted to 100. Moreover, the “Waterhemp plant response rating” value turned out to be 85 in the experiment with waterhemp (setting [5]), 100 in the experiment on waterhemp (setting [6]) and 100 with waterhemp (setting [7]). In addition, the “Plant response rating, Waterhemp” value in the experiment with waterhemp (31 g ai/ha) turned out to be 100.
For `COc1cnn(-c2c(C#N)cccc2Oc2ncc(Cl)cn2)c1` [Compound 137], the “Plant response rating, Pigweed” value with pigweed [1] (setting [3]) worked out at 90. For the same compound, the “Pigweed plant response rating” value in the experiment on pigweed [1] (setting [8]) came out at 100; with pigweed [2] (setting [5]) it was 75; with pigweed [2] (setting [6]), 90; in the experiment with pigweed [2] (setting [7]), 100. In the experiment with giant foxtail (setting [3]), the “Foxtail, Giant plant response rating” value turned out to be 70. In the experiment on giant foxtail (setting [8]), the “Plant response rating, Foxtail, Giant” value is reported as 100. Besides, the “Corn plant response rating” value with corn (setting [3]) was 30. For the same compound, the “Plant response rating, Corn” value in the experiment with corn (setting [8]) stood at 80. In addition, the “Lambsquarters plant response rating” value in the experiment with lambsquarters (setting [5]), with lambsquarters (setting [6]) and in the experiment on lambsquarters (setting [7]) was 100 throughout. In addition, the figures for the “Nutsedge, Yellow plant response rating” value with yellow nutsedge (setting [5]), in the experiment with yellow nutsedge (setting [6]) and in the experiment on yellow nutsedge (setting [7]) were 0, 5 and 10, respectively. The “Ragweed plant response rating” value in the experiment with ragweed (setting [5]) is on record as 45; with ragweed (setting [6]), 80; in the experiment on ragweed (setting [7]) it was 95. For the same compound, the “Waterhemp plant response rating” value in the experiment with waterhemp (setting [5]) was determined as 100; in the experiment on waterhemp (setting [6]) it was 95; with waterhemp (setting [7]), 100.
Turning to `N#Cc1cnn(-c2c(CF)cccc2Oc2ncc(F)cn2)c1` [Compound 151], the “Plant response rating, Pigweed” value in the experiment on pigweed [1] (setting [9]) and in the experiment on pigweed [1] (setting [3]) was 90 each time. For the same compound, the “Plant response rating, Foxtail, Giant” value in the experiment on giant foxtail (setting [4]) was found to be 0. In addition, the “Foxtail, Giant plant response rating” value in the experiment on giant foxtail (setting [3]) is on record as 40. In the experiment with corn (setting [4]), the “Plant response rating, Corn” value is reported as 0. Also, the “Corn plant response rating” value in the experiment on corn (setting [3]) is listed as 40. Also, the “Lambsquarters plant response rating” value in the experiment with lambsquarters (setting [5]), in the experiment on lambsquarters (setting [6]) and in the experiment on lambsquarters (setting [7]) was 100 each time. In addition, the “Nutsedge, Yellow plant response rating” value is reported as 0 in the experiment with yellow nutsedge (setting [5]), 5 with yellow nutsedge (setting [6]) and 25 with yellow nutsedge (setting [7]). Further, the “Pigweed plant response rating” value in the experiment on pigweed [2] (setting [5]), in the experiment on pigweed [2] (setting [6]) and in the experiment with pigweed [2] (setting [7]) was 100 throughout. Further, the “Ragweed plant response rating” value in the experiment with ragweed (setting [5]) was determined as 55; in the experiment with ragweed (setting [6]), 85; in the experiment with ragweed (setting [7]), 100. The “Waterhemp plant response rating” value in the experiment on waterhemp (setting [5]) is listed as 95; with waterhemp (setting [6]) it was 100; with waterhemp (setting [7]) it was 100.
Regarding `FCc1cccc(Oc2ncc(Cl)cn2)c1-n1cc(Cl)cn1` [Compound 250], the “Plant response rating, Pigweed” value with pigweed [1] (setting [9]) amounted to 80; with pigweed [2] (62 g ai/ha), 100. For the same compound, in the experiment with pigweed [1] (125 g ai/ha), the “Pigweed plant response rating (0 to 100 scale)” value was 100. Moreover, the “Plant response rating, Foxtail, Giant” value with giant foxtail (setting [4]) is recorded as 10; in the experiment with giant foxtail (setting [10]), 80. Moreover, the results for the “Plant response rating, Corn” value with corn (setting [4]) and in the experiment with corn (setting [10]) were 10 and 30, respectively. The “Lambsquarters plant response rating” value in the experiment with lambsquarters (setting [5]) was determined as 90; with lambsquarters (setting [7]), 100. Further, in the experiment with lambsquarters (62 g ai/ha), the “Plant response rating, Lambsquarters” value amounted to 100. The “Nutsedge, Yellow plant response rating” value is 0 with yellow nutsedge (setting [5]) and 5 with yellow nutsedge (setting [7]). The “Pigweed plant response rating” value in the experiment on pigweed [2] (setting [5]) came to 85; in the experiment with pigweed [2] (setting [7]), 100. In addition, the “Ragweed plant response rating” value in the experiment with ragweed (setting [5]) is 15; with ragweed (setting [7]) it was 75. Moreover, the “Plant response rating, Ragweed” value with ragweed (62 g ai/ha) was determined as 40. The “Waterhemp plant response rating” value in the experiment on waterhemp (setting [5]) came out at 85; with waterhemp (setting [7]), 100. Further, in the experiment with waterhemp (62 g ai/ha), the “Plant response rating, Waterhemp” value stood at 100.
